Reference: publication PMC2199025 (The Journal of Experimental Medicine, 1997)
Ends that are not written are not given here.

What was measured:
[1] = biological target: H-2K^b (Mus musculus, UniProt P01901); test: Peptide competition cytotoxicity assay; format: cell-based, murine
[2] = biological target: T1, transporters associated with processing (Mus musculus, UniProt P21958+P36371); test: Transporter associated with processing; format: biochemical
T1 sequence (P21958 1-724): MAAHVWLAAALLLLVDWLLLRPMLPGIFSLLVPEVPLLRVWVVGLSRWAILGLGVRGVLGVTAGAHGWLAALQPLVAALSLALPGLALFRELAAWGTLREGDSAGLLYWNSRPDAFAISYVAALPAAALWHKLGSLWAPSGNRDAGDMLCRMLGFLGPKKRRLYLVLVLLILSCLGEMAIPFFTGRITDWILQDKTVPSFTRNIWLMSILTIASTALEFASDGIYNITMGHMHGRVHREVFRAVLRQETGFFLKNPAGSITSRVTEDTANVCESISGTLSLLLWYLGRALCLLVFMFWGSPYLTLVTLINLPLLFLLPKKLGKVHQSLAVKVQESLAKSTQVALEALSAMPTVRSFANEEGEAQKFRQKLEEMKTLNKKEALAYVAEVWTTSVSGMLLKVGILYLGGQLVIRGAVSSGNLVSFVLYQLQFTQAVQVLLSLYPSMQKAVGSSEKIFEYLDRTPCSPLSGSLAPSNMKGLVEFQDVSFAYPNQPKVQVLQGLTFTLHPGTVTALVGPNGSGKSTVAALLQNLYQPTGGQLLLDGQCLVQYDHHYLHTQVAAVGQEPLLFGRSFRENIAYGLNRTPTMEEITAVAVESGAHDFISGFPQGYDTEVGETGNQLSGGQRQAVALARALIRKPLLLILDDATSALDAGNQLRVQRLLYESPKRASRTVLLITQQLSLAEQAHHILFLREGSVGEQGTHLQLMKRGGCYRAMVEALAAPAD
T1 sequence (P36371 1-702): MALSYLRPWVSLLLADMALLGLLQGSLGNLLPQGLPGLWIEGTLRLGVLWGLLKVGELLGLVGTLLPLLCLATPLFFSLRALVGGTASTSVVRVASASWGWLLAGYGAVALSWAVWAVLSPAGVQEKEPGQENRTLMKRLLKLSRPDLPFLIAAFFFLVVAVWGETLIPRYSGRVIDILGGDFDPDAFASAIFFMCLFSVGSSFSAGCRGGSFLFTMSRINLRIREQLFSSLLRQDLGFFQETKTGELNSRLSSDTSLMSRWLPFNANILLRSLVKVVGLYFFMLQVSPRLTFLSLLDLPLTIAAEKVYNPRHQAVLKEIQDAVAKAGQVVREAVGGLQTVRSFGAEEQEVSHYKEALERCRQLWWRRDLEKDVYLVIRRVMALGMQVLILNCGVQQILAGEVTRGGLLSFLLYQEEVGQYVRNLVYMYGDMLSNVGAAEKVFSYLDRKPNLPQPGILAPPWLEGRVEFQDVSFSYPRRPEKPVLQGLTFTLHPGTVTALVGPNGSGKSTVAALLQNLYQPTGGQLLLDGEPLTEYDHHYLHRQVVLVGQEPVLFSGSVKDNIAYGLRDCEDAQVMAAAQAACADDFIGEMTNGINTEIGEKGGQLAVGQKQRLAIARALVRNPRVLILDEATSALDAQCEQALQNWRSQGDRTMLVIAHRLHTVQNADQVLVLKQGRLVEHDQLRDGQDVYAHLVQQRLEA

Sequence | IC50 [1] | IC50 [2]
TYSPPLNKL | 13.6 µM | 5.81 µM
TTIHYKYM |  | 5.68 µM
YSPPLNKLF | 0.464 µM | > 92.7 µM
VMCTYSPPL |  | 2.47 µM
LNKLFCQL | 2.04 µM | 7.16 µM
AIYKKSQHM | 0.271 µM | 4.07 µM
